Structures are written as SMILES. Some results are limits rather than exact numbers.

The subject of this experiment is male Sprague-Dawley rats. The experiment is described as follows: In-vivo peritoneal dialysis in rats: fluid volume recovered from the peritoneum. Details: species or system rat. As for the experimental part: The peritoneal dialysis experiment was conducted in male Sprague-Dawley rats weighing 500-600 g (Charles River) maintained on a standard diet with water ad libitum. The animals were anaesthetized with an intraperitoneal injection of inactin (100 mg/kg) and were placed on an operating table at controlled temperature. The animals were submitted to a tracheostomy to cannulate the left jugular vein with a PESO medical silicone tube. Thirty minutes after administration of the anaesthetic the animals were infused with a saline solution at a rate of 2.3 ml/h throughout the period of the experiment. The dialysis solution (15 ml), after preheating to 37° C., was inoculated into the peritoneal cavity with a 15 teflon needle-cannula 1 h after administration of the anaesthetic. The amount of fluid injected was determined by weighing the syringe before and after injection of the fluid, using an electronic scale. At the end of each analysis period (2, 4 and 6 h), incisions were made in the rats' abdomens with an acusector and all the fluid present in the peritoneum was aspirated with a 1 ml syringe. After removing the surface fluid, the intestines were carefully shifted from the abdominal cavity to collect the residual fluid remaining on the dorsal wall. The fluid recovered was placed in a beaker and weighed. […]

In the case of `C[N+](C)(C)C[C@H](O)CC(=O)[O-]` [Carnitine, L-carnitine], for the setting “rat peritoneal dialysis, 1.5-4.25%”, the “Quality as osmotic agent compared with glucose” value is reported as “at least as good as glucose”. The “Time by which the increase in intraperitoneal fluid volume is completed / peak activity reached” value (rat, all concentrations used (1.5, 2.5, 4.25%)) is given as ≤ 2 h.

(Values after patent publication US7932291B2, “Use of L-carnitine and its alkanoyl derivatives as osmotic agents in solutions for medical use” (Sigma-Tau Industrie Farmaceutiche Riunite S.p.A., priority 1999, dated 2011).)
